According to patent EP3498714B1 (priority 2017, dated 2019):
In brackets after ≈: the same amount, converted by molar mass. Like-named read-outs stand apart in the source and are kept apart here.

Key:
S. aureus Newman = assay: MIC in RPMI-1640 macrophage growth medium; format: cell-based; conditions: RPMI-1640 macrophage growth medium supplemented with 0.5% (v/v) FBS
Procedure: Determination of intracellular efficiency. For infection experiments, cells were seeded in 24-well plates in RPMI-1640 supplemented with 10% FBS and 150 nM phorbol 12-myristate 13-acetate (PMA) at a concentration of 10^5 cells/well. After 2 d, the cells were differentiated into macrophages and reached a cell density of ca. 2 x 10^5 cells/well. The medium was then removed and the cells were washed twice with PBS. An inoculum of ca. 2×10^6 CFU (colony-forming units) of S. aureus Newman in log phase (multiplicity of infection, MOI=10) was added to each well in RPMI/10% FBS and the plates were incubated at 37 °C and 5% CO2 in a water vapor-saturated atmosphere. The inoculum was checked by serial dilution and plating on CASO agar (1.5% peptone casein, 0.5% peptone soymeal, 0.5% NaCl, 1.5% agar, pH 7.3). After 2 h, the infected cells were washed three times with PBS (phosphate-buffered saline; pH 7.4) and incubated with fresh growth medium containing 10 µg/mL lysostaphin (≥500 U/mg) for 30 min in order to kill remaining extracellular bacteria. The initial load (Control t0) was checked by recovery of intracellular bacteria and plating on CASO agar. After three times washing with PBS the test compounds were added in RPMI-1640/0.5% FBS at the given concentrations for 18 h. After repeated washing with PBS the intracellular bacteria were recovered by adding ice-cooled water for 10 min and the bacterial suspensions were further diluted in 0.9% (w/v) NaCl prior to plating on CASO agar. The plates were incubated overnight at 37 °C and colonies were counted. The MIC values on S. aureus Newman in RPMI-1640 macrophage growth medium supplemented with 0.5% (v/v) fetal bovine serum (FBS) for neosorangicin A (2), sorangicin A (1) and the reference antibiotic rifampicin (RIF) were 0.01, 0.13 and 0.01 µg/mL, respectively. Human THP-1 macrophages were infected with S. aureus at an MOI (multiplicity of infection) of 10. After killing of extracellular bacteria, the cells were treated for 18 h with the antibiotics at their respective 1x and 8x MIC. […]

S. aureus RNA polymerase = biological target: T1, S. aureus RNA polymerase (Staphylococcus aureus, UniProt P47768); assay: RNA polymerase inhibition assay (ProFoldin kit); format: biochemical
T1 construct: purchased ProFoldin, MA
Procedure: The inhibition of S. aureus RNA polymerase by Sorangicin derivatives 1 and 2 was tested in vitro (bacterial RNA Polymerase Assay Kit; ProFoldin, MA). The samples were prepared and analyzed according to the manufacturer's protocol with slight modifications. In brief, serial dilutions (concentration range: 0.1 nM - 10 µM) of rifampicin, sorangicin A (1) and neosorangicin A (2) in black 384-well plates (low-volume, non-binding surface; Corning) were incubated for 1 h at room temperature with 25 nM RNA polymerase from S. aureus in assay buffer (42.5 mM HEPES, 42.5 mM NH4Cl, 2 mM DTT, 4 mM MgCl2, 0.005 % (v/v) Tween-20; pH 7.5) containing 0.5 mM NTPs and 1x DNA template. The reaction was monitored by incubation with a fluorescent probe for 5 min and measurement of the fluorescence intensity at 535 nm after excitation at 485 nm (Tecan Infinite M200PRO). Half-inhibitory concentrations (IC50) were determined in two independent experiments by sigmoidal curve fitting and given values are IC50 ± SD.

[1] = test system: Escherichia coli DSM-1116 + 3 µg/ml PMBN; assay: Microbroth dilution assay (MIC) with PMBN; format: cell-based; conditions: for Minimum inhibitory concentrations (MIC): 18-24 h
Procedure: (§1) Bacterial strains. All microorganisms were obtained from the German Collection of Microorganisms and Cell Cultures (Deutsche Sammlung für Mikroorganismen und Zellkulturen, DSMZ) and the American Type Culture Collection (ATCC) or were part of our internal strain collection.
(§2) Antimicrobial Testing. Sorangicin A (1) and Neosorangicin A (2) were tested in microbroth dilution assays on a panel of Gram-positive and Gram-negative bacteria. Overnight cultures were prepared from cryopreserved cultures and were diluted to achieve a final inoculum of 10^4-10^5 cfu/mL. Serial dilutions of compounds in DMSO were prepared in sterile 96-well plates in the test medium (cation-adjusted Müller-Hinton broth; supplemented with 2% (w/v) NaCl for S. aureus and 2.5% (v/v) lysed horse blood for Enterococcus and Streptococcus spp.) The cell suspension was added and microorganisms were grown for 18-24 h at either 30°C or 37°C. Streptococci and enterococci were grown under microaerophilic conditions. Growth inhibition was assessed by visual inspection and given MIC values are the lowest concentration of antibiotic at which there was no visible growth. Table 2. Antimicrobial activity; Minimum inhibitory concentrations (MIC, µg/mL) of neosorangicin A (2), sorangicin A (1), and a reference antibiotic (RIF; Rifampicin) on selected Gram-positive (I) and Gram-negative (II) species.
However, similar to 1, neosorangicin A (2) was not active on a rifampicin-resistant (Rif^R) derivative of S. aureus Newman, which confirms overlapping binding sites on RNA polymerase. […] In addition, the MIC values of 2 on efflux-deficient E. coli mutants (TolC as part of the AcrAB multidrug efflux system) were decreased.

[2] = test system: Pseudomonas aeruginosa DSM-1128; assay: Microbroth dilution assay (MIC); format: cell-based; conditions: for Minimum inhibitory concentrations (MIC): 18-24 h
Procedure: as §1, §2

[3] = test system: Staphylococcus aureus ATCC29213; assay: Microbroth dilution assay (MIC); format: cell-based; conditions: 18-24 h, 2% NaCl
Procedure: as §1, §2

[4] = test system: Enterococcus faecalis DSM-20478; assay: Microbroth dilution assay (MIC); format: cell-based; conditions: 2.5% lysed horse blood, microaerophilic; for Minimum inhibitory concentrations (MIC): 18-24 h
Procedure: as §1, §2

[5] = test system: Escherichia coli DSM-1116; assay: Microbroth dilution assay (MIC); format: cell-based; conditions: for Minimum inhibitory concentrations (MIC): 18-24 h
Procedure: as §1, §2

[6] = test system: Escherichia coli (TolC-deficient); assay: Microbroth dilution assay (MIC); format: cell-based; conditions: for Minimum inhibitory concentrations (MIC): Escherichia coli (TolC-deficient), 18-24 h
Procedure: as §1, §2

[7] = test system: Staphylococcus aureus Newman; assay: Microbroth dilution assay (MIC); format: cell-based; conditions: 18-24 h, 2% NaCl
Procedure: as §1, §2

[8] = test system: Staphylococcus aureus DSM-346; assay: Microbroth dilution assay (MIC); format: cell-based; conditions: 2% NaCl; for Minimum inhibitory concentrations (MIC): 18-24 h
Procedure: as §1, §2

[9] = test system: Staphylococcus aureus Newman (Rif^R); assay: Microbroth dilution assay (MIC); format: cell-based; conditions: for Minimum inhibitory concentrations (MIC): Staphylococcus aureus Newman (Rif^R), 18-24 h, 2% NaCl; for activity on rifampicin-resistant (Rif^R) derivative of S. aureus Newman: result in words
Procedure: as §1, §2

[10] = test system: Acinetobacter baumannii DSM-30008; assay: Microbroth dilution assay (MIC); format: cell-based; conditions: for Minimum inhibitory concentrations (MIC): 18-24 h
Procedure: as §1, §2

[11] = test system: Streptococcus pneumoniae DSM-11865; assay: Microbroth dilution assay (MIC); format: cell-based; conditions: 2.5% lysed horse blood, microaerophilic; for Minimum inhibitory concentrations (MIC): 18-24 h
Procedure: as §1, §2

[12] = test system: Enterococcus faecium DSM-20477; assay: Microbroth dilution assay (MIC); format: cell-based; conditions: 2.5% lysed horse blood, microaerophilic; for Minimum inhibitory concentrations (MIC): 18-24 h
Procedure: as §1, §2

[13] = test system: Escherichia coli DSM-26863 (tolC3); assay: Microbroth dilution assay (MIC); format: cell-based; conditions: for Minimum inhibitory concentrations (MIC): Escherichia coli DSM-26863 (tolC3), 18-24 h
Procedure: as §1, §2

[14] = test system: Klebsiella pneumoniae DSM-30104; assay: Microbroth dilution assay (MIC); format: cell-based; conditions: for Minimum inhibitory concentrations (MIC): 18-24 h
Procedure: as §1, §2

Human THP-1 macrophages = assay: Toxicity towards THP-1 macrophages (microscopic control); format: cell-based; conditions: 18 h treatment at 1x and 8x MIC
Procedure: • Figure 1. Chemical structures of sorangicin A (1) and of a compound according to the present invention - neosorangicin A - (2). • Figure 2. A) Reduction of intracellular S. aureus Newman (CFU: colony-forming unit) in PMA-differentiated THP-1 cells after 18 h treatment with rifampicin (RIF), neosorangicin A (2) and sorangicin A (1) at their respective 1x and 8x MIC. B) Microscopic control of THP-1 cells that were either treated with neosorangicn A (2) or 0.5% (v/v) DMSO as solvent control. • Figure 3. Comparison of sorangicin and neosorangicin biosynthetic pathways. Wavy bond symbolize phosphopantheteinyl arms. ACP domains are shown as small, unlabeled circles. Domains that are missing from one of the two pathways are shown as asterisks.
(§3) Cells. Human acute monocytic leukemia THP-1 cells (ACC-16) were obtained from the German Collection of Microorganisms and Cell Cultures (DSMZ) and were maintained under conditions recommended by the depositor.
Determination of intracellular efficiency. For infection experiments, cells were seeded in 24-well plates in RPMI-1640 supplemented with 10% FBS and 150 nM phorbol 12-myristate 13-acetate (PMA) at a concentration of 10^5 cells/well. After 2 d, the cells were differentiated into macrophages and reached a cell density of ca. 2 x 10^5 cells/well. […] The plates were incubated overnight at 37 °C and colonies were counted. […]

[15] = test system: intracellular S. aureus Newman; assay: Intracellular efficacy in infected THP-1 macrophages; format: cell-based; conditions: intracellular S. aureus Newman in PMA-differentiated THP-1 macrophages; MOI 10; 18 h treatment at 1x and 8x MIC
Procedure: as §3
Determination of intracellular efficiency. For infection experiments, cells were seeded in 24-well plates in RPMI-1640 supplemented with 10% FBS and 150 nM phorbol 12-myristate 13-acetate (PMA) at a concentration of 10^5 cells/well. After 2 d, the cells were differentiated into macrophages and reached a cell density of ca. 2 x 10^5 cells/well. The medium was then removed and the cells were washed twice with PBS. An inoculum of ca. 2×10^6 CFU (colony-forming units) of S. aureus Newman in log phase (multiplicity of infection, MOI=10) was added to each well in RPMI/10% FBS and the plates were incubated at 37 °C and 5% CO2 in a water vapor-saturated atmosphere. The inoculum was checked by serial dilution and plating on CASO agar (1.5% peptone casein, 0.5% peptone soymeal, 0.5% NaCl, 1.5% agar, pH 7.3). After 2 h, the infected cells were washed three times with PBS (phosphate-buffered saline; pH 7.4) and incubated with fresh growth medium containing 10 µg/mL lysostaphin (≥500 U/mg) for 30 min in order to kill remaining extracellular bacteria. […] The plates were incubated overnight at 37 °C and colonies were counted. […]

[16] = DSM1116, 18-24 h, read-out: Minimum inhibitory concentrations (MIC)
[17] = read-out: Minimum inhibitory concentrations (MIC)
[18] = purified S. aureus RNA polymerase 25 nM, 1 h at room temperature, IC50 ± SD, two independent experiments, read-out: IC50

T1 sequence (P47768 whole entry): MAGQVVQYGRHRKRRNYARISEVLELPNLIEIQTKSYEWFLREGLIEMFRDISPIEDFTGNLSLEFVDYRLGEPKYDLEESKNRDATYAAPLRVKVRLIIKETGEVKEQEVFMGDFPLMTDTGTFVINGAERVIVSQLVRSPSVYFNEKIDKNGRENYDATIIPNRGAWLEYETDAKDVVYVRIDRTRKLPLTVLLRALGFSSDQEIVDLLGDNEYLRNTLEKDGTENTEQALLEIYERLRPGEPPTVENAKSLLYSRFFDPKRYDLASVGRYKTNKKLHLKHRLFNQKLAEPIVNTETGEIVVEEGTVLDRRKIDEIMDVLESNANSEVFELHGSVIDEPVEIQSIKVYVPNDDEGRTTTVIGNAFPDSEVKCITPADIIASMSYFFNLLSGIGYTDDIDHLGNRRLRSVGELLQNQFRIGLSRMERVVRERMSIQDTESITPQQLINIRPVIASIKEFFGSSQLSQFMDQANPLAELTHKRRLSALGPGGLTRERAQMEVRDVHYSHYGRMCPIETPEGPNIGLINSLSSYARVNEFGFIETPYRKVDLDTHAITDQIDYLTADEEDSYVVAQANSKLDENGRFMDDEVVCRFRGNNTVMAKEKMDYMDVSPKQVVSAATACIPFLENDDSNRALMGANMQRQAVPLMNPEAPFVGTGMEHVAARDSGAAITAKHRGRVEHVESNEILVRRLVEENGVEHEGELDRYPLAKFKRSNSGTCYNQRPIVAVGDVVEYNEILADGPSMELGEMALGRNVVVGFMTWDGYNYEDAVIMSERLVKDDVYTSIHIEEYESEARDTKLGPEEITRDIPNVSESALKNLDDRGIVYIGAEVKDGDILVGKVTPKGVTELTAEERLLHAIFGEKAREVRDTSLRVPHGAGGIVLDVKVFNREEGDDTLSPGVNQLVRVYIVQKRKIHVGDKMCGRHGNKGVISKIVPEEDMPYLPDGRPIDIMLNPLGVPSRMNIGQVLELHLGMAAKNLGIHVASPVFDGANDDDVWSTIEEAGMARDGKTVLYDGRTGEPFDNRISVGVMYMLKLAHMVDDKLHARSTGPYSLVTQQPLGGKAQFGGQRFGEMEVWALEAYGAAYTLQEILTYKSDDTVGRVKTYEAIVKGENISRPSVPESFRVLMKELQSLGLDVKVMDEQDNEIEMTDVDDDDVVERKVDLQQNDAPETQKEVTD

Row | Compound | MIC values on S. aureus Newman (S. aureus Newman) [µg/mL] | IC50 (S. aureus RNA polymerase; [18]) [nM] | Minimum inhibitory concentrations (MIC) [1] [µg/mL] | Minimum inhibitory concentrations (MIC) [2] [µg/mL] | Minimum inhibitory concentrations (MIC) [3] [µg/mL] | Minimum inhibitory concentrations (MIC) [4] [µg/mL] | Minimum inhibitory concentrations (MIC) [5] [µg/mL] | Minimum inhibitory concentrations (MIC) [6] [µg/mL] | Minimum inhibitory concentrations (MIC) [7] [µg/mL] | Minimum inhibitory concentrations (MIC) [8] [µg/mL] | Minimum inhibitory concentrations (MIC) [9] [µg/mL] | activity on rifampicin-resistant (Rif^R) derivative of S. aureus Newman [9] | Minimum inhibitory concentrations (MIC) [10] [µg/mL] | Minimum inhibitory concentrations (MIC) [11] [µg/mL] | Minimum inhibitory concentrations (MIC) [12] [µg/mL] | Minimum inhibitory concentrations (MIC) [13] [µg/mL] | Minimum inhibitory concentrations (MIC) [14] [µg/mL] | also measured
1 | CO[C@H]1/C=C/O[C@@]2(C)Oc3c(C)c(O)c4c(O)c(c(/C=N/N5CCN(C)CC5)c(O)c4c3C2=O)NC(=O)/C(C)=C\C=C\[C@H](C)[C@H](O)[C@@H](C)[C@@H](O)[C@@H](C)[C@H](OC(C)=O)[C@@H]1C [RIF, Rifampicin] |  |  |  |  |  |  |  |  |  |  |  |  |  |  |  |  |  | MIC (S. aureus Newman; Staphylococcus aureus, NEWMAN): 0.01 µg/mL (≈ 0.0122 µM); IC50 (S. aureus RNA polymerase): 30 ± 20 nM; MIC [1, 16]: 0.4 µg/mL (≈ 0.486 µM); MIC ([2]; DSM1128, 18-24 h, read-out: Minimum inhibitory concentrations (MIC)): > 6.4 µg/mL; MIC [3, 17]: 0.01 µg/mL (≈ 0.0122 µM); MIC ([4]; DSM20478, 18-24 h, read-out: Minimum inhibitory concentrations (MIC)): 6.4 µg/mL (≈ 7.78 µM); MIC [5, 16]: 6.4 µg/mL (≈ 7.78 µM); MIC ([6]; Escherichia coli, read-out: Minimum inhibitory concentrations (MIC)): 6.4 µg/mL (≈ 7.78 µM); MIC [7, 17]: 0.01 µg/mL (≈ 0.0122 µM); MIC ([8]; DSM346, 18-24 h, read-out: Minimum inhibitory concentrations (MIC)): 0.006 µg/mL (≈ 0.00729 µM); MIC ([9]; Staphylococcus aureus, NEWMAN, read-out: Minimum inhibitory concentrations (MIC)): > 6.4 µg/mL; MIC ([10]; DSM30008, 18-24 h, read-out: Minimum inhibitory concentrations (MIC)): 1.6 µg/mL (≈ 1.94 µM); MIC ([11]; DSM11865, 18-24 h, read-out: Minimum inhibitory concentrations (MIC)): 0.1 µg/mL (≈ 0.122 µM); MIC ([12]; DSM20477, 18-24 h, read-out: Minimum inhibitory concentrations (MIC)): > 6.4 µg/mL; MIC ([13]; Escherichia coli, DSM26863, read-out: Minimum inhibitory concentrations (MIC)): 6.4 µg/mL (≈ 7.78 µM); MIC ([14]; DSM30104, 18-24 h, read-out: Minimum inhibitory concentrations (MIC)): 6.4 µg/mL (≈ 7.78 µM)
2 | sorangicin A [compound 1] | 0.13 | 210 ± 120 | 0.25 | 32 | 0.03 | 2 | 16 | 8 | 0.1 | 1 | > 64 | not active | 8 | 32 | 16 | 8 | 16 | 
3 | neosorangicin A [compound 2] | 0.01 | 60 ± 10 | 0.25 | 8 | 0.01 | 0.5 | 8 | 1 | 0.01 | 0.25 | > 64 | not active | 8 | 0.5 | 8 | 2 | 8 | toxicity towards the human macrophages (Human THP-1 macrophages): without displaying any apparent toxicity; reduction of the bacterial load [15]: 3 Log
